Measurements taken from US8338348B2, “Skin cleansing compositions with polyglycerol esters and hydrophobically modified polymers” (Johnson & Johnson Consumer Companies, Inc., priority 2010, dated 2012).

Tested on: EpiDerm™ Skin Model
Experiment: Skin Irritancy Potential Test via in vitro skin equivalents (IL-1α release)
Type: cell-based, human
Conditions: Table 12; vs C30
From the text: The EpiDerm™ Skin Model provided by MatTek Corporation was used in this study. The target cells are epithelial, derived from human skin. The test materials are applied directly to the culture surface, at air interface, so that undiluted and/or end use dilutions can be tested directly.
The experimental design used in this study consisted of a definitive assay to determine the release of one cytokine. Where tissue viability is not decreased by 50% as compared to the negative control tissue (as measured by MTT reduction), the inflammatory potential is then measured by the synthesis/release of the cytokine IL-1α.
In the treatment phase six skin equivalents are used for each diluted test product, individual results are averaged to provide overall response. 100 μl is applied to each equivalent for 1 hour of diluted product (10% dilution) exposure followed by 5 rinses of Ca, Mg Free PBS solution. Each Tissue is placed in a 6 well tray with assay medium for each rinse and returned to incubation for 24 hours. Following incubation tissues are assessed for cytokine responses of IL-1α.

Substance	effect of PGE on mildness of the surfactant system
Polyglycerol-10-Myristate [PG-10-M]	improve the mildness
Polyglycerol-10-Oleate [PG-10-O]	improve the mildness
